Test results as given in publication PMC10451668, “Natural Acetogenins, Chatenaytrienins-1, -2, -3 and -4, Mitochondrial Potential Uncouplers and Autophagy Inducers—Promising Anticancer Agents” (Antioxidants, 2023).

Key:
Type in all cases: cell-based, human
[1] = Cytotoxicity assay (7-AAD viability, flow cytometry); conditions: human; normal fibroblasts; ± standard error of the mean, 95% CI in parenthesis
Jurkat cells [2] = assay: Assessment of autophagy (anti-LC3/FITC, flow cytometry); conditions: 0.5 CC50, 48 h
Excerpt: Autophagy is involved in various physiological processes and its changes are associated with the pathogenesis of diseases such as neurodegenerative diseases, cardiovascular complications, cancer, and infectious diseases, as well as with physiological processes such as innate and specific immunity, pathogen clearance, lymphocyte selection, antigen presentation, and production of immunoglobulins. Therefore, the determination of LC3 protein inside autophagosomes without the cytosolic form of LC3-I at the stage of selective cell permeability was measured using flow cytometry. Thus, using the FlowCellect™ LC3-GFP Reporter Autophagy Assay Kit (FCCH100170 and FCCH100181), flow cytometry allowed for a rapid assay that could be combined with other phenotypic and functional markers to characterize different cell populations.
Canonical autophagy is associated with the conversion of LC3 protein (an autophagosome marker) from the cytoplasmic form of LC3I to the lipid-bound form of LC3II, which is associated with the membranes of maturing autophagosomes. The autophagy process can be conveniently classified into several stages. First, induction and translocation of the cytoplasmic LC3 protein occur due to the influence of external stimuli (adverse environmental influences)—the process is initiated by external/internal stimuli (for example, nutrient depletion or hypoxia). Then, the formation of autophagosomes begins, which are double-membrane vesicles that include the LC3 protein. This protein regulates the fusion of autophagosomes and lysosomes. It exists in two fractions—cytoplasmic LC3-I and LC3-II, isolated in the autophagosomal membrane. The LC3-II protein fraction was specified in our work, as its detection is a reliable indicator of the processes of autophagy in the cell.

Jurkat cell lysates = assay: Multiplex analysis of signaling, genotoxicity and early apoptosis proteins (MILLIPLEX MAP, Luminex)
Protocol: Multiplex analysis was performed according to a previously published method. MILLIPLEX®MAP technology is used to determine the total protein or phosphorylated protein levels of various biological analytes, such as kinases or signaling proteins, including CREB, ERK/MAP, p70 S6, p21, p38, PI3K/AKT/mTOR, JNK (A), p53, MDM2, Bcl-2/Bax, STAT3 and STAT5, Nf-kB, Caspase 3-8-9, JNK, ATM, Chk1, Chk2, and H2AX, in cell lysates using the Luminex® system ((MILLIPLEX Multi-Pathway Magnetic Bead 9-Plex—Cell Signaling Multiplex Assay kit, Merk, Germany). This MILLIPLEX®MAP technology provides an alternative to Western blotting and immunoprecipitation and has several important advantages, such as more accurate measurement of small amounts of protein and the elimination of analyte loss during sample preparation. The multiplex immunoassay (MILLIPLEX 48-680MAG; Merck Millipore, Germany) was performed in Millipore 96-well plates to detect changes in concentrations of phosphorylated and unphosphorylated proteins p53, MDM2, p21, p38, PI3K/AKT/mTOR, Bcl-2/Bax, STAT3 and STAT5, Nf-kB, Caspase 3 -8-9, CREB, ERK/MAP, p70 S6, JNK, ATM, Chk1, Chk2, and H2AX in Jurkat cell lysates.
The levels of phosphorylated and non-phosphorylated proteins were analyzed using MILLIPLEX® map technology to study the analytes in the same sample within a fairly short time. Various deviations in protein concentration due to external factors or detection errors that could affect the results of the experiment were thereby reduced to zero.
The expression of p53, MDM2, p21, p38, PI3K/AKT/mTOR, Bcl-2/Bax, STAT3 and STAT5, Nf-kB, Caspase 3-8-9, CREB, ERK/MAP, p70 S6, JNK, ATM, Chk1, Chk2, and H2AX proteins in lysate samples of Jurkat tumor cells were studied using Luminex technology with the MILLIPLEX® MAP 9-Plex Multi-Pathway 9-plex Magnetic Bead Kit. This bead-based assay involved color-coded fluorescent particles pre-coated with specific antibodies targeting 9 major kinases in signaling pathways.

Jurkat cells [3] = assay: Oxidative stress and early apoptosis (MitoSOX Red and annexin V, MitoStress Kit); conditions: compound at CC50, 4 h
Excerpt: Changes in the mitochondrial membrane potential (ΔΨ) in Jurkat cells induced by treatment with the synthesized compounds were detected using MitoSOX Red, a positively charged probe that accumulates rapidly in mitochondria and as such can be used to detect superoxide/ROS production within mitochondria using fluorometry, microscopy, or flow cytometry. Live cells induced a low level of MitoSOX Red fluorescence, while cells with scattered mitochondrial membrane potential caused much higher MitoSOX Red fluorescence. Annexin V is a dye commonly used to detect early signs of apoptosis. […] Thus, using two different dyes, MitoSOX Red and annexin V (CF488A), in the FlowCellect™ MitoStress Kit (FCCH100109), we analyzed the mitochondrial membrane potential dissipation and associated apoptosis in Jurkat cells in response to the synthesized chatenaytrienins.
Therefore, simultaneous detection of mitochondrial superoxide generation (detected by MitoSOX Red membrane-penetrating dye) and expression of phosphatidylserine on the cell surface of apoptotic cells (assessed by binding of annexin V) in the same cell sample provides an accurate evaluation of the ability of the test compound to initiate oxidative stress in cell culture and induce apoptosis.

Structure (SMILES): CCCCCCCCCC/C=C\CC/C=C\CC/C=C\CCCCCCCCCCC1=C[C@H](C)OC1=O [compound 1, chatenaytrienin-1]
- CC50 [1]: 690 ± 40 nM
- cells with autophagy (gate M3-2) (Jurkat cells [2]): 96.26%
- expression of caspase-8 (Jurkat cell lysates; 6 h and 12 h): did not significantly affect
- levels of Akt, p38, and CREB (Jurkat cell lysates; compound at CC50, 4 h): most pronouncedly suppressed
- levels of all types of kinase proteins (CREB, JNK, NFkB, p38, ERK1/2, Akt, p70S6K, STAT3, STAT5) (Jurkat cell lysates; compound at CC50, 4 h, MFI versus intact cells): most pronouncedly reduced
- cleaved caspase-9 (Jurkat cell lysates; especially after 12 h, level exceeded control): promoted the accumulation
- level of BAD protein (Jurkat cell lysates; first 6 h, within 12 h began to increase again, not reaching control): decreased
- cells demonstrating oxidative stress along with the marker of early apoptosis, annexin (Jurkat cells [3]; MitoSOX Red and annexin V): 10.53%
- cells in early apoptosis (Jurkat cells [3]; annexin V): 75%
